Experimental data: PubChem BioAssay (NCI)
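How tested: cells in 96-well plates exposed to compound for 48 hours at five concentrations. TGI denotes the concentration required for complete inhibition of growth.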

Columns and labels:
Assay in all cases: NCI tumour cell line growth inhibition, 48 h
HL-60(TB) leukemia = tested on: HL-60(TB) leukemia
RPMI-8226 leukemia = tested on: RPMI-8226 leukemia
HCC-2998 colon = tested on: HCC-2998 colon
HOP-62 NSCLC = tested on: HOP-62 NSCLC
SK-OV-3 ovarian = tested on: SK-OV-3 ovarian
CCRF-CEM leukemia = tested on: CCRF-CEM leukemia
NCI-H522 lung = tested on: NCI-H522 lung
NCI-H23 lung = tested on: NCI-H23 lung
SK-MEL-2 melanoma = tested on: SK-MEL-2 melanoma
SN12C renal = tested on: SN12C renal
KM20L2 colon = tested on: KM20L2 colon
HCT-15 colon = tested on: HCT-15 colon
NCI-H460 lung = tested on: NCI-H460 lung
A498 renal = tested on: A498 renal
SF-295 CNS = tested on: SF-295 CNS
M14 melanoma = tested on: M14 melanoma
COLO 205 colon = tested on: COLO 205 colon
CAKI-1 renal = tested on: CAKI-1 renal
UO-31 renal = tested on: UO-31 renal
K-562 leukemia = tested on: K-562 leukemia
SW-620 colon = tested on: SW-620 colon
SK-MEL-28 melanoma = tested on: SK-MEL-28 melanoma
TK-10 renal = tested on: TK-10 renal
MALME-3M melanoma = tested on: MALME-3M melanoma
NCI-H226 lung = tested on: NCI-H226 lung
U251 CNS = tested on: U251 CNS
M19-MEL melanoma = tested on: M19-MEL melanoma
SNB-75 CNS = tested on: SNB-75 CNS
OVCAR-4 ovarian = tested on: OVCAR-4 ovarian
UACC-257 melanoma = tested on: UACC-257 melanoma
HOP-92 NSCLC = tested on: HOP-92 NSCLC
DLD-1 colon = tested on: DLD-1 colon
SF-539 CNS = tested on: SF-539 CNS
OVCAR-5 ovarian = tested on: OVCAR-5 ovarian
RXF 393 renal = tested on: RXF 393 renal
DMS 273 small cell lung = tested on: DMS 273 small cell lung
SNB-78 CNS = tested on: SNB-78 CNS
SF-268 CNS = tested on: SF-268 CNS
MOLT-4 leukemia = tested on: MOLT-4 leukemia
HOP-18 NSCLC = tested on: HOP-18 NSCLC
IGROV1 ovarian = tested on: IGROV1 ovarian
ACHN renal = tested on: ACHN renal
786-0 renal = tested on: 786-0 renal
EKVX NSCLC = tested on: EKVX NSCLC
A549 NSCLC = tested on: A549 NSCLC
LXFL 529 NSCLC = tested on: LXFL 529 NSCLC
XF 498 CNS = tested on: XF 498 CNS
SNB-19 CNS = tested on: SNB-19 CNS
UACC-62 melanoma = tested on: UACC-62 melanoma
DMS 114 small cell lung = tested on: DMS 114 small cell lung
OVCAR-8 ovarian = tested on: OVCAR-8 ovarian
HCT-116 colon = tested on: HCT-116 colon
LOX IMVI melanoma = tested on: LOX IMVI melanoma
KM12 colon = tested on: KM12 colon
SK-MEL-5 melanoma = tested on: SK-MEL-5 melanoma
HT29 colon = tested on: HT29 colon
OVCAR-3 ovarian = tested on: OVCAR-3 ovarian
SR leukemia = tested on: SR leukemia
RXF-631 renal = tested on: RXF-631 renal

CN(C)C(F)=PC(F)(F)F (stereo unspecified)
TGI (HL-60(TB) leukemia): > 100 µM
TGI (RPMI-8226 leukemia): > 100 µM
TGI (HCC-2998 colon): > 100 µM
TGI (HOP-62 NSCLC): > 100 µM
TGI (SK-OV-3 ovarian): > 100 µM
TGI (CCRF-CEM leukemia): > 100 µM
TGI (NCI-H522 lung): > 100 µM
TGI (NCI-H23 lung): > 100 µM
TGI (SK-MEL-2 melanoma): > 100 µM
TGI (SN12C renal): > 100 µM
TGI (KM20L2 colon): > 100 µM
TGI (HCT-15 colon): > 100 µM
TGI (NCI-H460 lung): > 100 µM
TGI (A498 renal): > 100 µM
TGI (SF-295 CNS): > 100 µM
TGI (M14 melanoma): > 100 µM
TGI (COLO 205 colon): > 100 µM
TGI (CAKI-1 renal): > 100 µM
TGI (UO-31 renal): > 100 µM
TGI (K-562 leukemia): > 100 µM
TGI (SW-620 colon): > 100 µM
TGI (SK-MEL-28 melanoma): > 100 µM
TGI (TK-10 renal): > 100 µM
TGI (MALME-3M melanoma): > 100 µM
TGI (NCI-H226 lung): > 100 µM
TGI (U251 CNS): > 100 µM
TGI (M19-MEL melanoma): > 100 µM
TGI (SNB-75 CNS): > 100 µM
TGI (OVCAR-4 ovarian): > 100 µM
TGI (UACC-257 melanoma): > 100 µM
TGI (HOP-92 NSCLC): > 100 µM
TGI (DLD-1 colon): > 100 µM
TGI (SF-539 CNS): > 100 µM
TGI (OVCAR-5 ovarian): > 100 µM
TGI (RXF 393 renal): > 100 µM
TGI (DMS 273 small cell lung): > 100 µM
TGI (SNB-78 CNS): > 100 µM
TGI (SF-268 CNS): > 100 µM
TGI (MOLT-4 leukemia): > 100 µM
TGI (HOP-18 NSCLC): > 100 µM
TGI (IGROV1 ovarian): > 100 µM
TGI (ACHN renal): > 100 µM
TGI (786-0 renal): > 100 µM
TGI (EKVX NSCLC): > 100 µM
TGI (A549 NSCLC): > 100 µM
TGI (LXFL 529 NSCLC): > 100 µM
TGI (XF 498 CNS): > 100 µM
TGI (SNB-19 CNS): > 100 µM
TGI (UACC-62 melanoma): > 100 µM
TGI (DMS 114 small cell lung): > 100 µM
TGI (OVCAR-8 ovarian): > 100 µM
TGI (HCT-116 colon): > 100 µM
TGI (LOX IMVI melanoma): > 100 µM
TGI (KM12 colon): > 100 µM
TGI (SK-MEL-5 melanoma): > 100 µM
TGI (HT29 colon): > 100 µM

CC(=O)CC(=O)CCC(=O)Nc1cccc(C(F)(F)F)c1
TGI (HL-60(TB) leukemia): > 100 µM
TGI (RPMI-8226 leukemia): > 100 µM
TGI (HCC-2998 colon): > 100 µM
TGI (HOP-62 NSCLC): > 100 µM
TGI (SK-OV-3 ovarian): > 100 µM
TGI (CCRF-CEM leukemia): > 100 µM
TGI (NCI-H522 lung): > 100 µM
TGI (NCI-H23 lung): > 100 µM
TGI (SK-MEL-2 melanoma): > 100 µM
TGI (SN12C renal): > 100 µM
TGI (KM20L2 colon): > 100 µM
TGI (HCT-15 colon): > 100 µM
TGI (NCI-H460 lung): > 100 µM
TGI (A498 renal): > 100 µM
TGI (SF-295 CNS): > 100 µM
TGI (M14 melanoma): > 100 µM
TGI (COLO 205 colon): > 100 µM
TGI (CAKI-1 renal): > 100 µM
TGI (UO-31 renal): > 100 µM
TGI (K-562 leukemia): > 100 µM
TGI (SW-620 colon): > 100 µM
TGI (TK-10 renal): > 100 µM
TGI (MALME-3M melanoma): > 100 µM
TGI (NCI-H226 lung): > 100 µM
TGI (U251 CNS): > 100 µM
TGI (OVCAR-4 ovarian): > 100 µM
TGI (UACC-257 melanoma): > 100 µM
TGI (HOP-92 NSCLC): > 100 µM
TGI (DLD-1 colon): > 100 µM
TGI (OVCAR-3 ovarian): > 100 µM
TGI (SF-539 CNS): > 100 µM
TGI (OVCAR-5 ovarian): > 100 µM
TGI (DMS 273 small cell lung): > 100 µM
TGI (SNB-78 CNS): > 100 µM
TGI (SF-268 CNS): > 100 µM
TGI (MOLT-4 leukemia): > 100 µM
TGI (HOP-18 NSCLC): > 100 µM
TGI (IGROV1 ovarian): > 100 µM
TGI (ACHN renal): > 100 µM
TGI (786-0 renal): > 100 µM
TGI (EKVX NSCLC): > 100 µM
TGI (A549 NSCLC): > 100 µM
TGI (LXFL 529 NSCLC): > 100 µM
TGI (XF 498 CNS): > 100 µM
TGI (SNB-19 CNS): > 100 µM
TGI (UACC-62 melanoma): > 100 µM
TGI (DMS 114 small cell lung): > 100 µM
TGI (OVCAR-8 ovarian): > 100 µM
TGI (HCT-116 colon): > 100 µM
TGI (LOX IMVI melanoma): > 100 µM
TGI (KM12 colon): > 100 µM
TGI (SK-MEL-5 melanoma): > 100 µM
TGI (HT29 colon): > 100 µM

O=C(CC(=O)c1ccccc1)C(=O)Nc1ccc(Cl)cc1
TGI (HL-60(TB) leukemia): > 100 µM
TGI (RPMI-8226 leukemia): > 100 µM
TGI (HCC-2998 colon): > 100 µM
TGI (HOP-62 NSCLC): > 100 µM
TGI (SK-OV-3 ovarian): > 100 µM
TGI (CCRF-CEM leukemia): > 100 µM
TGI (NCI-H522 lung): > 100 µM
TGI (NCI-H23 lung): > 100 µM
TGI (SK-MEL-2 melanoma): > 100 µM
TGI (SN12C renal): > 100 µM
TGI (KM20L2 colon): > 100 µM
TGI (HCT-15 colon): > 59.7 µM
TGI (NCI-H460 lung): > 55.1 µM
TGI (A498 renal): > 100 µM
TGI (SF-295 CNS): > 100 µM
TGI (M14 melanoma): > 100 µM
TGI (COLO 205 colon): > 66.1 µM
TGI (CAKI-1 renal): > 100 µM
TGI (UO-31 renal): > 100 µM
TGI (K-562 leukemia): > 100 µM
TGI (SW-620 colon): > 60.2 µM
TGI (SK-MEL-28 melanoma): > 100 µM
TGI (TK-10 renal): > 100 µM
TGI (MALME-3M melanoma): > 100 µM
TGI (NCI-H226 lung): > 100 µM
TGI (U251 CNS): > 100 µM
TGI (SNB-75 CNS): > 100 µM
TGI (OVCAR-4 ovarian): > 100 µM
TGI (UACC-257 melanoma): > 100 µM
TGI (HOP-92 NSCLC): > 100 µM
TGI (DLD-1 colon): > 100 µM
TGI (OVCAR-3 ovarian): > 100 µM
TGI (SF-539 CNS): > 100 µM
TGI (OVCAR-5 ovarian): > 100 µM
TGI (RXF 393 renal): > 100 µM
TGI (DMS 273 small cell lung): > 100 µM
TGI (SNB-78 CNS): > 100 µM
TGI (SR leukemia): > 100 µM
TGI (SF-268 CNS): > 100 µM
TGI (MOLT-4 leukemia): > 100 µM
TGI (HOP-18 NSCLC): > 100 µM
TGI (IGROV1 ovarian): > 100 µM
TGI (ACHN renal): > 100 µM
TGI (786-0 renal): > 100 µM
TGI (EKVX NSCLC): > 100 µM
TGI (A549 NSCLC): > 100 µM
TGI (LXFL 529 NSCLC): > 100 µM
TGI (XF 498 CNS): > 100 µM
TGI (SNB-19 CNS): > 100 µM
TGI (UACC-62 melanoma): > 100 µM
TGI (DMS 114 small cell lung): > 57 µM
TGI (OVCAR-8 ovarian): > 100 µM
TGI (HCT-116 colon): > 61.5 µM
TGI (LOX IMVI melanoma): > 56.7 µM
TGI (KM12 colon): > 100 µM
TGI (SK-MEL-5 melanoma): > 100 µM
TGI (HT29 colon): > 59.6 µM

C[C@H]1C(=O)c2c(cc(O)c(C3OC(CO)C(O)C(O)C3O)c2O)OC1c1ccc(O)c(O)c1 (stereo partly specified)
TGI (HL-60(TB) leukemia): > 100 µM
TGI (HOP-62 NSCLC): > 100 µM
TGI (SK-OV-3 ovarian): > 100 µM
TGI (CCRF-CEM leukemia): > 100 µM
TGI (NCI-H522 lung): > 100 µM
TGI (NCI-H23 lung): > 100 µM
TGI (RXF-631 renal): > 100 µM
TGI (NCI-H460 lung): > 100 µM
TGI (A498 renal): > 100 µM
TGI (SF-295 CNS): > 100 µM
TGI (M14 melanoma): > 100 µM
TGI (UO-31 renal): > 100 µM
TGI (SK-MEL-28 melanoma): > 100 µM
TGI (TK-10 renal): > 100 µM
TGI (NCI-H226 lung): 98.9 µM
TGI (U251 CNS): > 100 µM
TGI (M19-MEL melanoma): > 100 µM
TGI (UACC-257 melanoma): > 100 µM
TGI (HOP-92 NSCLC): > 100 µM
TGI (OVCAR-5 ovarian): > 100 µM
TGI (RXF 393 renal): > 100 µM
TGI (SNB-78 CNS): > 100 µM
TGI (SR leukemia): > 100 µM
TGI (MOLT-4 leukemia): > 100 µM
TGI (IGROV1 ovarian): > 100 µM
TGI (ACHN renal): > 100 µM
TGI (EKVX NSCLC): > 100 µM
TGI (A549 NSCLC): > 100 µM
TGI (SNB-19 CNS): > 100 µM
TGI (UACC-62 melanoma): > 100 µM
TGI (DMS 114 small cell lung): > 100 µM
TGI (OVCAR-8 ovarian): > 100 µM
TGI (HCT-116 colon): > 100 µM
TGI (KM12 colon): > 100 µM
TGI (HT29 colon): > 100 µM
